{"source": "patent US7566727B2", "about": "“2-(1-aza-bicyclo[2.2.2]oct-3-yl)-2,3-dihydro-isoindole-1-one/5,6-dihydro-furo[2,3-c] pyrrol-4-one derivative ligands for alpha 7 nicotinic acetylcholine receptor” (priority 2004, dated 2009)", "molecular_target": "α7 nAChR subtype (Rattus norvegicus, UniProt Q05941)", "sequence (Q05941 23-502)": "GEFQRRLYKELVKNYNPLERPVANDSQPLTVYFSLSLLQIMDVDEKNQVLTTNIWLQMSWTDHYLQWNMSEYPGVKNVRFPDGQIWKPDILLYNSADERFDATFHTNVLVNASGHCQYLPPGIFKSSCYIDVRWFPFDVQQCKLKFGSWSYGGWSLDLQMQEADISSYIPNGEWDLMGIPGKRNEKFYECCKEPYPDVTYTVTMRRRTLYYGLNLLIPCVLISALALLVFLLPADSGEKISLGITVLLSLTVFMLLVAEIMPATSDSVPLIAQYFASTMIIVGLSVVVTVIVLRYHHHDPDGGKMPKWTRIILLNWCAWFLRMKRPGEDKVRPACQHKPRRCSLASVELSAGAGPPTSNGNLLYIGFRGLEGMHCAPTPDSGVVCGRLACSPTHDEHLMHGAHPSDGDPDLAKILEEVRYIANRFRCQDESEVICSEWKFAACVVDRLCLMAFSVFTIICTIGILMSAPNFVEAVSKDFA", "assay": "Test A: 125I-α-Bungarotoxin binding to rat hippocampal membranes (affinity at α7 nAChR subtype)", "conditions": "[125I]α-BTX displacement, rat hippocampal membranes", "protocol": "Test A—Assay for Affinity at α7 nAChR subtype\n125I-α-Bungarotoxin (BTX) binding to rat hippocampal membranes. Rat hippocampi were homogenized in 20 volumes of cold homogenization buffer (HB: concentrations of constituents (mM): tris(hydroxymethyl)aminomethane 50; MgCl2 1; NaCl 120; KCl 5: pH 7.4). The homogenate was centrifuged for 5 minutes at 1000 g, the supernatant was saved and the pellet re-extracted. The pooled supernatants were centrifuged for 20 minutes at 12,000 g, washed, and re-suspended in HB. Membranes (30-80 μg) were incubated with 5 nM [^125I] α-BTX, 1 mg/mL BSA (bovine serum albumin), test drug, and either 2 mM CaCl2 or 0.5 mM EGTA [ethylene glycol-bis(β-aminoethylether)] for 2 hours at 21° C., and then filtered and washed 4 times over Whatman glass fibre filters (thickness C) using a Brandel cell harvester.\nBinding data analysis for Tests A and B\nIC50 values and pseudo Hill coefficients (nH) were calculated using the non-linear curve fitting program ALLFIT (DeLean A, Munson P J and Rodbard D (1977) Am. J. Physiol., 235:E97-E102). […] Ki values were determined using 6 or more drug concentrations."}
{"compound": "CS(=O)(=O)c1ccc(-c2ccc3c(c2)C(=O)N([C@H]2CN4CCC2CC4)C3)cc1", "note": "[Example 44, 2-(R)-1-Aza-bicyclo[2.2.2]oct-3-yl-6-(4-methanesulfonyl-phenyl)-2,3-dihydro-isoindol-1-one]", "values": [{"measurement": "Ki", "value": 321, "unit": "nM"}]}
{"compound": "O=C1c2cc(-c3cnc4ccccc4c3)ccc2CN1[C@H]1CN2CCC1CC2", "note": "[Example 45, 2-(R)-1-Aza-bicyclo[2.2.2]oct-3-yl-6-quinolin-3-yl-2,3-dihydro-isoindol-1-one]", "values": [{"measurement": "Ki", "value": 66.8, "unit": "nM"}]}
{"compound": "COc1ccc(-c2ccc3c(c2)C(=O)N([C@H]2CN4CCC2CC4)C3)cn1", "note": "[Example 46, 2-(R)-1-Aza-bicyclo[2.2.2]oct-3-yl-6-(6-methoxy-pyridin-3-yl)-2,3-dihydro-isoindol-1-one]", "values": [{"measurement": "Ki", "value": 290, "unit": "nM"}]}
{"compound": "O=C1c2cc(-c3cccc4cnccc34)ccc2CN1[C@H]1CN2CCC1CC2", "note": "[Example 47, 2-(R)-1-Aza-bicyclo[2.2.2]oct-3-yl-6-isoquinolin-5-yl-2,3-dihydro-isoindol-1-one]", "values": [{"measurement": "Ki", "value": 32, "unit": "nM"}]}
{"compound": "O=C1c2cc(-c3cncc4ccccc34)ccc2CN1[C@H]1CN2CCC1CC2", "note": "[Example 48, 2-(R)-1-Aza-bicyclo[2.2.2]oct-3-yl-6-isoquinolin-4-yl-2,3-dihydro-isoindol-1-one]", "values": [{"measurement": "Ki", "value": 112, "unit": "nM"}]}
{"compound": "CC(=O)Nc1ccc(-c2ccc3c(c2)C(=O)N([C@H]2CN4CCC2CC4)C3)cc1", "note": "[Example 49, N-[4-((R)-2-1-Aza-bicyclo[2.2.2]oct-3-yl-3-oxo-2,3-dihydro-1H-isoindol-5-yl)-phenyl]-acetamide]", "values": [{"measurement": "Ki", "value": 3.2, "unit": "nM"}]}
{"compound": "Cn1cc(-c2ccc3c(c2)C(=O)N([C@H]2CN4CCC2CC4)C3)cn1", "note": "[Example 50, 2-(R)-1-Aza-bicyclo[2.2.2]oct-3-yl-6-(1-methyl-1H-pyrazol-4-yl)-2,3-dihydro-isoindol-1-one]", "values": [{"measurement": "Ki", "value": 61, "unit": "nM"}]}
{"compound": "O=C1c2cc(-c3cnn(Cc4ccccc4)c3)ccc2CN1[C@H]1CN2CCC1CC2", "note": "[Example 51, 2-(R)-1-Aza-bicyclo[2.2.2]oct-3-yl-6-(1-benzyl-1H-pyrazol-4-yl)-2,3-dihydro-isoindol-1-one]", "values": [{"measurement": "Ki", "value": 146, "unit": "nM"}]}
{"compound": "CN(C)C(=O)c1cccc(-c2ccc3c(c2)C(=O)N([C@H]2CN4CCC2CC4)C3)c1", "note": "[Example 52, 3-((R)-2-1-Aza-bicyclo[2.2.2]oct-3-yl-3-oxo-2,3-dihydro-1H-isoindol-5-yl)-N,N-dimethyl-benzamide]", "values": [{"measurement": "Ki", "value": 31, "unit": "nM"}]}
{"compound": "CCNC(=O)c1ccc(-c2ccc3c(c2)C(=O)N([C@H]2CN4CCC2CC4)C3)cc1", "note": "[Example 53, 4-((R)-2-1-Aza-bicyclo[2.2.2]oct-3-yl-3-oxo-2,3-dihydro-1H-isoindol-5-yl)-N-ethyl-benzamide]", "values": [{"measurement": "Ki", "value": 348, "unit": "nM"}]}
{"compound": "COc1cc(OC)cc(-c2ccc3c(c2)C(=O)N([C@H]2CN4CCC2CC4)C3)c1", "note": "[Example 54, 2-(R)-1-Aza-bicyclo[2.2.2]oct-3-yl-6-(3,5-dimethoxy-phenyl)-2,3-dihydro-isoindol-1-one]", "values": [{"measurement": "Ki", "value": 669, "unit": "nM"}]}
{"compound": "NC(=O)c1cccc(-c2ccc3c(c2)C(=O)N([C@H]2CN4CCC2CC4)C3)c1", "note": "[Example 55, 3-((R)-2-1-Aza-bicyclo[2.2.2]oct-3-yl-3-oxo-2,3-dihydro-1H-isoindol-5-yl)-benzamide]", "values": [{"measurement": "Ki", "value": 17, "unit": "nM"}]}
{"compound": "O=C(NCc1ccccc1)c1ccc(-c2ccc3c(c2)C(=O)N([C@H]2CN4CCC2CC4)C3)cc1", "note": "[Example 56, 4-((R)-2-1-Aza-bicyclo[2.2.2]oct-3-yl-3-oxo-2,3-dihydro-1H-isoindol-5-yl)-N-benzyl-benzamide]", "values": [{"measurement": "Ki", "value": 100, "unit": "nM"}]}
{"compound": "Nc1cccc(-c2ccc3c(c2)C(=O)N([C@H]2CN4CCC2CC4)C3)c1", "note": "[Example 57, 6-(3-Amino-phenyl)-2-(R)-1-aza-bicyclo[2.2.2]oct-3-yl-2,3-dihydro-isoindol-1-one]", "values": [{"measurement": "Ki", "value": 6.4, "unit": "nM"}]}
{"compound": "CCC(=O)Nc1cccc(-c2ccc3c(c2)C(=O)N([C@H]2CN4CCC2CC4)C3)c1", "note": "[Example 58, N-[3-((R)-2-1-Aza-bicyclo[2.2.2]oct-3-yl-3-oxo-2,3-dihydro-1H-isoindol-5-yl)-phenyl]-propionamide]", "values": [{"measurement": "Ki", "value": 1.7, "unit": "nM"}]}
{"compound": "COc1cncc(-c2ccc3c(c2)C(=O)N([C@H]2CN4CCC2CC4)C3)c1", "note": "[Example 59, 2-(R)-1-Aza-bicyclo[2.2.2]oct-3-yl-6-(5-methoxy-pyridin-3-yl)-2,3-dihydro-isoindol-1-one]", "values": [{"measurement": "Ki", "value": 383, "unit": "nM"}]}
{"compound": "O=C1c2cc(-c3ccc4c(c3)OCCO4)ccc2CN1[C@H]1CN2CCC1CC2", "note": "[Example 60, 2-(R)-1-Aza-bicyclo[2.2.2]oct-3-yl-6-(2,3-dihydro-benzo[1,4]dioxin-6-yl)-2,3-dihydro-isoindol-1-one]", "values": [{"measurement": "Ki", "value": 28, "unit": "nM"}]}
{"compound": "CC(C)Oc1cccc(-c2ccc3c(c2)C(=O)N([C@H]2CN4CCC2CC4)C3)c1", "note": "[Example 61, 2-(R)-1-Aza-bicyclo[2.2.2]oct-3-yl-6-(3-isopropoxy-phenyl)-2,3-dihydro-isoindol-1-one]", "values": [{"measurement": "Ki", "value": 14, "unit": "nM"}]}
{"compound": "O=C1c2cc(-c3cccc(OC(F)(F)F)c3)ccc2CN1[C@H]1CN2CCC1CC2", "note": "[Example 62, 2-(R)-1-Aza-bicyclo[2.2.2]oct-3-yl-6-(3-trifluoromethoxy-phenyl)-2,3-dihydro-isoindol-1-one]", "values": [{"measurement": "Ki", "value": 48, "unit": "nM"}]}
{"compound": "O=C(Nc1cccc(-c2ccc3c(c2)C(=O)N([C@H]2CN4CCC2CC4)C3)c1)c1ccccc1", "note": "[Example 64, N-[3-((R)-2-1-Aza-bicyclo[2.2.2]oct-3-yl-3-oxo-2,3-dihydro-1H-isoindol-5-yl)-phenyl]-benzamide]", "values": [{"measurement": "Ki", "value": 3.9, "unit": "nM"}]}
{"compound": "CC(=O)Nc1ccccc1-c1ccc2c(c1)C(=O)N([C@H]1CN3CCC1CC3)C2", "note": "[Example 65, N-[2-((R)-2-1-Aza-bicyclo[2.2.2]oct-3-yl-3-oxo-2,3-dihydro-1H-isoindol-5-yl)-phenyl]-acetamide]", "values": [{"measurement": "Ki", "value": 1150, "unit": "nM"}]}
{"compound": "CCN(CC)C(=O)c1cccc(-c2ccc3c(c2)C(=O)N([C@H]2CN4CCC2CC4)C3)c1", "note": "[Example 66, 3-((R)-2-1-Aza-bicyclo[2.2.2]oct-3-yl-3-oxo-2,3-dihydro-1H-isoindol-5-yl)-N,N-diethyl-benzamide]", "values": [{"measurement": "Ki", "value": 20, "unit": "nM"}]}
{"compound": "O=C1c2cc(-c3cccc(OCc4ccccc4)c3)ccc2CN1[C@H]1CN2CCC1CC2", "note": "[Example 67, 2-(R)-1-Aza-bicyclo[2.2.2]oct-3-yl-6-(3-benzyloxy-phenyl)-2,3-dihydro-isoindol-1-one]", "values": [{"measurement": "Ki", "value": 51, "unit": "nM"}]}
{"compound": "O=C(c1cccc(-c2ccc3c(c2)C(=O)N([C@H]2CN4CCC2CC4)C3)c1)N1CCOCC1", "note": "[Example 68, 2-(R)-1-Aza-bicyclo[2.2.2]oct-3-yl-6-[3-(morpholine-4-carbonyl)-phenyl]-2,3-dihydro-isoindol-1-one]", "values": [{"measurement": "Ki", "value": 44, "unit": "nM"}]}
{"compound": "O=C(c1cccc(-c2ccc3c(c2)C(=O)N([C@H]2CN4CCC2CC4)C3)c1)N1CCCCC1", "note": "[Example 69, 2-(R)-1-Aza-bicyclo[2.2.2]oct-3-yl-6-[3-(piperidine-1-carbonyl)-phenyl]-2,3-dihydro-isoindol-1-one]", "values": [{"measurement": "Ki", "value": 23, "unit": "nM"}]}
{"compound": "O=C(c1cccc(-c2ccc3c(c2)C(=O)N([C@H]2CN4CCC2CC4)C3)c1)N1CCCC1", "note": "[Example 70, 2-(R)-1-Aza-bicyclo[2.2.2]oct-3-yl-6-[3-(pyrrolidine-1-carbonyl)-phenyl]-2,3-dihydro-isoindol-1-one]", "values": [{"measurement": "Ki", "value": 14, "unit": "nM"}]}
{"compound": "CN(C)c1cccc(-c2ccc3c(c2)C(=O)N([C@H]2CN4CCC2CC4)C3)c1", "note": "[Example 71, 2-(R)-1-Aza-bicyclo[2.2.2]oct-3-yl-6-(3-dimethylamino-phenyl)-2,3-dihydro-isoindol-1-one]", "values": [{"measurement": "Ki", "value": 4.2, "unit": "nM"}]}
{"compound": "CSc1cccc(-c2ccc3c(c2)C(=O)N([C@H]2CN4CCC2CC4)C3)c1", "note": "[Example 72, 2-(R)-1-Aza-bicyclo[2.2.2]oct-3-yl-6-(3-methylsulfanyl-phenyl)-2,3-dihydro-isoindol-1-one]", "values": [{"measurement": "Ki", "value": 37, "unit": "nM"}]}
